Columns and labels:
[1] = tested on: Notch1; assay: Gene expression test, RT-PCR analysis of Notch1; format: cell-based, mouse, rat; details: treated relative to untreated cells, normalized toward GAPDH
Experimental: (§1) In ethanol, 2,4,4-trimethyl-3-(15-hydroxypentadecyl)-2-cyclohexen-1-one synthesized by the method described in JP-A-2000-297034 was dissolved to give a concentration of 10^−2 M. The solution was added to a culture solution in a desirable concentration to be final dilution of 1 μl/ml. At different times and different periods in cell culture, 2,4,4-trimethyl-3-(15-hydroxypentadecyl)-2-cyclohexen-1-one was added. […] Each experiment was repeated at least three times.
(§2) Protocol was adapted from Grandbarbe et al., Development (2003) 130, 1393-1402. When briefly explained, as described in Tropepe et al., Dev. Biol. (1999) 208, 166-188, primary neurospheres were prepared from telencephalon of wild-type embryo (E14.5) and were maintained as secondary neurospheres by continuous subculture in a serum-free medium (Reynolds and Weiss, Science (1992) 255, […]) containing 10 ng/ml EGF. After propagation for different times, 50 to 100 neurospheres were inoculated to a polyornithine (Sigma)-coated cover slip in the presence of 2 ng/ml EGF and 0.5% FBS and differentiated. […]
(§3) Typical cycle conditions were 94° C. for 30 seconds, 55° C. for 30 seconds, and 72° C. for 30 seconds except for HES-5 whose program was 94° C. for 30 seconds, 63° C. for 30 seconds, and 72° C. for 2 minutes. […] The relative amount of mRNA was quantitatively determined in accordance with BabyImager analysis and NIHimage 1.36.

[2] = tested on: Notch receptors (Notch 2 to 4); assay: Gene expression test, RT-PCR analysis of the other Notch receptors; format: cell-based, mouse, rat; details: treated relative to untreated cells, normalized toward GAPDH
Experimental: as §1, §2, §3

[3] = tested on: HES5; assay: Gene expression test, RT-PCR analysis of HES5; format: cell-based, mouse, rat; details: treated relative to untreated cells, normalized toward GAPDH
Experimental: as §1, §2, §3

[4] = tested on: STAT3; assay: Western Blot of STAT3 phosphorylation; format: cell-based; details: 10^−8 M solution, compared with control without compound, FIG. 2
Experimental: After preparation of 2,4,4-trimethyl-3-(15-hydroxypentadecyl)-2-cyclohexen-1-one solution (10^−8 M), Western Blot was performed using STAT3 and phosphorylated STAT3 antibody (STAT3 antibody derived from rabbit, manufactured by Cell Signaling) to confirm the action of 2,4,4-trimethyl-3-(15-hydroxypentadecyl)-2-cyclohexen-1-one on STAT3 phosphorylation.

[5] = tested on: 3T3 Ras transformed fibroblast; assay: In vitro test, neoplastic foci of 3T3 Ras transformed fibroblast; format: cell-based, mouse; details: 10^−6M, compared with untreated cell, FIG. 3
Experimental: When 3T3 Ras transformed fibroblast was cultured in 10% FBS-containing DMEM medium for 3 days, appearance of “foci” is observed as compared with non-transformed cell strains.
Each of 3T3 Ras transformed fibroblast (derived from mouse) or 3T3 fibroblast (derived from mouse) each is cultured at a concentration of 10,000 cell/ml in 10% FBS-containing DMEM medium for 1 day.
Thereafter, each cell is treated with 10^−5M 2,4,4-trimethyl-3-(15-hydroxypentadecyl)-2-cyclohexen-1-one for 6 days.
3T3 Ras transformed fibroblast or 3T3 fibroblast is cultured at a concentration of 10,000 cell/ml in 5% FBS-containing DMEM medium which contains 0.625% agar (DIFCO) and 10^−6 M 2,4,4-trimethyl-3-(15-hydroxypentadecyl)-2-cyclohexen-1-one.
(§4) The fibroblast transformed with Ras was treated with 2,4,4-trimethyl-3-(15-hydroxypentadecyl)-2-cyclohexen-1-one (10^−6M) and then compared with the untreated cell. Non-transformed cell strains (treated and untreated) were used as controls.

[6] = tested on: Notch1; assay: Notch1 expression in cell strain transformed with Ras; format: cell-based, mouse; details: fibroblast transformed with Ras, 10^−6M
Experimental: as §4

[7] = tested on: 3T3 Ras transformed fibroblast; assay: Ex vivo test, tumor size after injection of 3T3 Ras transformed fibroblast into Swiss Nu/Nu mouse; format: in vivo; details: cells pretreated 3 days, intraperitoneal on days 2, 8 and 15, FIG. 4
Experimental: In a test tube for 3 days, 3T3 Ras transformed fibroblast (derived from mouse) or 3T3 fibroblast (derived from mouse) was treated with applying 50 μl (10^−3 M) of 2,4,4-trimethyl-3-(15-hydroxypentadecyl)-2-cyclohexen-1-one. The cell ([…]) was again suspended in 400 μl of DMEM medium and 200 μl thereof was injected into 7 weeks-old Swiss Nu/Nu mouse (male) symmetrically. On second, eighth, and fifteenth days after injection, 2,4,4-trimethyl-3-(15-hydroxypentadecyl)-2-cyclohexen-1-one was intraperitoneally administrated into mouse.

CC1=C(CCCCCCCCCCCCCCCO)C(C)(C)CCC1=O [2,4,4-trimethyl-3-(15-hydroxypentadecyl)-2-cyclohexen-1-one]
levels of mRNA of Notch1 [1]: always decreased
expression levels of the other Notch receptors (Notch 2 to 4) [2]: not changed
levels of mRNA of HES5 [3]: always decreased
STAT3 phosphorylation (band of P-STAT3) [4]: suppressed
neoplastic foci of the cell strain transformed with Ras [5]: reduced
Notch1 expression [6]: decrease
tumor size [7]: reduced

Source: patent publication US7888395B2, “STAT3 phosphorylation inhibitor and notch1 expression inhibitor” (Meiji Dairies Corporation, priority 2004, dated 2011)
